Measured values reported in patent US20090069336A1, “PYRIMIDOTHIOPHENE COMPOUNDS” (VERNALIS (CAMBRIDGE) LIMITED., priority 2004, published 2009).
pIC50: −log10 of the molar value.

target: T1, human full-length HSP90 (Homo sapiens, UniProt P08238); assay: Fluorescence polarization assay (competitive displacement of probe RBT0051001-FAM from HSP90); format: binding; settings: Table 1; read-out: Hsp90 FP IC50
T1 construct: E. coli expressed human full-length HSP90 protein, purified >95%; made in house; host or cells: E. coli
T1 sequence (P08238 whole entry): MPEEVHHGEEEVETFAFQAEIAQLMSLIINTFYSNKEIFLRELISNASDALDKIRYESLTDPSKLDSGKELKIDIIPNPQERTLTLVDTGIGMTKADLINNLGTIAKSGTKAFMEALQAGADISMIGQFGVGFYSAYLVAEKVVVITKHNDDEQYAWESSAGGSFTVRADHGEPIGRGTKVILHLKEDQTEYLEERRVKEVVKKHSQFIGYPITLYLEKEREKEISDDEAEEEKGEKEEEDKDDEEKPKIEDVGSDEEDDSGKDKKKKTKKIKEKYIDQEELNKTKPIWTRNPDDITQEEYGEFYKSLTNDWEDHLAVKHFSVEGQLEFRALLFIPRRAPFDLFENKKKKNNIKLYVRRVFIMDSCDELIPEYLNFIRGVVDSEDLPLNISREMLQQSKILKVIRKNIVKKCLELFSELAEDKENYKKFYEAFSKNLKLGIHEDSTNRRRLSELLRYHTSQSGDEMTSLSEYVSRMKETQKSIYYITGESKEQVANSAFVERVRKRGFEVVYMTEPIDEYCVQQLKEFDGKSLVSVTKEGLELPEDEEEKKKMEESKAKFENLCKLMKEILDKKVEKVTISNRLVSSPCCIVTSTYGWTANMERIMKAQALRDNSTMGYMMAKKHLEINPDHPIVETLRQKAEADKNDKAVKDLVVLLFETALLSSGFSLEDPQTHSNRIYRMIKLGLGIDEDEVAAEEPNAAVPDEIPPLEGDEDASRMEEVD
From the text: Fluorescence Polarization Assay
Fluorescence polarization {also known as fluorescence anisotropy} measures the rotation of a fluorescing species in solution, where the larger molecule the more polarized the fluorescence emission. When the fluorophore is excited with polarized light, the emitted light is also polarized. The molecular size is proportional to the polarization of the fluorescence emission.
The fluoroscein-labelled probe —RBT0051001-FAM—
binds to HSP90 {full-length human, full-length yeast or N-terminal domain HSP90} and the anisotropy {rotation of the probe:protein complex} is measured.
Test compound is added to the assay plate, left to equilibrate and the anisotropy measured again. Any change in anisotropy is due to competitive binding of compound to HSP90, thereby releasing probe.
Chemicals are of the highest purity commercially available and all aqueous solutions are made up in AR water. • 1) Costar 96-well black assay plate #3915 • 2) Assay buffer of (a) 100 mM Tris pH7.4; (b) 20 mM KCl; (c) 6 mM MgCl2. Stored at room temperature. • 3) BSA (bovine serum albumen) 10 mg/ml (New England Biolabs # B9001S) • 4) 20 mM probe in 100% DMSO stock concentration. Stored in the dark at RT. Working concentration is 200 nM diluted in AR water and stored at 4° C. Final concentration in assay 80 nM. • 5) E. coli expressed human full-length HSP90 protein, purified >95% (see, e.g., Panaretou et al., 1998) and stored in 50 μL aliquots at −80° C.
• 1) Add 100 μl 1× buffer to wells 11A and 12A (=FP BLNK) • 2) Prepare assay mix—all reagents are kept on ice with a lid on the bucket as the probe is light-sensitive.
• 3) Aliquot 100 μl assay mix to all other wells • 4) Seal plate and leave in dark at room temp for 20 minutes to equilibrate Compound Dilution Plate—1×3 dilution series • 1) In a clear 96-well v-bottom plate-{# VWR 007/008/257} add 10 μl 100% DMSO to wells B1 to H11 • 2) To wells A1 to A11 add 17.5 μl 100% DMSO • 3) Add 2.5 μl cpd to A1. This gives 2.5 mM {50×} stock cpd-assuming cpds 20 mM. • 4) Repeat for wells A2 to A10. Control in columns 11 and 12. • 5) Transfer 5 μl from row A to row B—not column 12. Mix well. • 6) Transfer 5 μl from row B to row C. […] In column 11 {provides standard curve} only add compound B11-H11. Add 2 μl of 100 mM standard cpd to wells B12-H12 {is positive control} • 13) The Z′ factor is calculated from zero controls and positive wells. It typically gives a value of 0.7-0.9.
The compounds tested in the above assay were assigned to one of two activity ranges, namely A=<10 μM; B=>10 μM, and those assignments are reported above.

pIC50	SMILES
> 5.00	CONC(=O)c1cc2c(-c3ccc(Cl)cc3Cl)nc(N)nc2s1 [Example 14]
> 5.00	CCONC(=O)c1cc2c(-c3ccc(Cl)cc3Cl)nc(N)nc2s1 [Example 15]
> 5.00	CNNC(=O)c1cc2c(-c3ccc(Cl)cc3Cl)nc(N)nc2s1 [Example 16]
> 5.00	CCCNC(=O)c1ccc(C)c(-c2nc(N)nc3sc(C(=O)NOC)cc23)c1 [Example 17]

same assay, conditions: activity range stated in each example; read-out: activity in the fluorescence polarization assay

pIC50	SMILES
> 5.00	Nc1nc(-c2ccc(Cl)cc2Cl)c2cc(C(=O)O)sc2n1 [Example 1, 2-Amino-4-(2,4-dichloro-phenyl)-thieno[2,3-d]pyrimidine-6-carboxylic acid]
< 5.00	Cc1ccc(-c2nc(N)nc3sc(C(=O)O)cc23)c(C)c1 [Example 2, 2-Amino-4-(2,4-dimethyl-phenyl)-thieno[2,3-d]pyrimidine-6-carboxylic acid]
< 5.00	CC(C)(O)c1cc2c(-c3ccc(Cl)cc3Cl)nc(N)nc2s1 [Example 3, 2-[2-Amino-4-(2,4-dichloro-phenyl)-thieno[2,3-d]pyrimidin-6-yl]-propan-2-ol]
> 5.00	CCC(O)(CC)c1cc2c(-c3ccc(Cl)cc3Cl)nc(N)nc2s1 [Example 4, 3-[2-Amino-4-(2,4-dichloro-phenyl)-thieno[2,3-d]pyrimidin-6-yl]-pentan-3-ol]
< 5.00	Nc1nc(-c2ccc(Cl)cc2Cl)c2cc(C(O)(c3ccccc3)c3ccccc3)sc2n1 [Example 5, [2-Amino-4-(2,4-dichloro-phenyl)-thieno[2,3-d]pyrimidin-6-yl]-diphenyl-methanol]
> 5.00	Nc1nc(-c2ccc(Cl)cc2Cl)c2cc(CO)sc2n1 [Example 6, [2-Amino-4-(2,4-dichloro-phenyl)-thieno[2,3-d]pyrimidin-6-yl]methanol]
> 5.00	Cc1ccc(-c2nc(N)nc3sc(C#N)cc23)c(C)c1 [Example 7, 2-Amino-4-(2,4-dimethylphenyl)-thieno[2,3-d]pyrimidine-6-carbonitrile]
> 5.00	CCC(=O)c1cc2c(-c3ccc(Cl)cc3Cl)nc(N)nc2s1 [Example 8, 1-[2-Amino-4-(2,4-dichloro-phenyl)-thieno[2,3-d]pyrimidine-6-yl]-propan-1-one]
> 5.00	Nc1nc(-c2ccc(Cl)cc2Cl)c2cc(C(=O)c3ccccc3)sc2n1 [Example 9, [2-Amino-4-(2,4-dichloro-phenyl)-thieno[2,3-d]pyrimidine-6-yl]-phenyl-methanone]
> 5.00	Cc1ccc(-c2nc(N)nc3sc(C4=NCCN4)cc23)c(C)c1 [Example 11, 6-(4,5-Dihydro-1H-imidazol-2-yl)-4-(2,4-dimethyl-phenyl)-thieno[2,3-d]pyrimidin-2-ylamine]
> 5.00	CN1CCN(NC(=O)c2cc3c(-c4ccc(Cl)cc4Cl)nc(N)nc3s2)CC1 [Example 12, 2-Amino-4-(2,4-dichloro-phenyl)-thieno[2,3-d]pyrimidine-6-carboxylic acid (4-methyl-piperazin-1-yl) amide]
> 5.00	Nc1nc(-c2ccc(Cl)cc2Cl)c2cc(C(=O)Nn3cnnc3)sc2n1 [Example 13, 2-Amino-4-(2,4-dichloro-phenyl)-thieno[2,3-d]pyrimidine-6-carboxylic acid [1,2,4]triazol-4-ylamide]
> 5.00	CCCNCc1cc2c(-c3ccc(C)cc3C)nc(N)nc2s1 [Example 18, 4-(2,4-dimethyl-phenyl)-6-propylaminomethyl-thieno[2,3-d]pyrimidin-2-ylamine]
> 5.00	Cc1cc(-c2cc3c(-c4ccc(Cl)cc4Cl)nc(N)nc3s2)[nH]n1 [Example 19, 4-(2,4-Dichloro-phenyl)-6-(5-methyl-2H-pyrazol-3-yl)-thieno[2,3-d]pyrimidin-2-ylamine]
> 5.00	Cc1cn[nH]c1-c1cc2c(-c3ccc(Cl)cc3Cl)nc(N)nc2s1 [Example 20, 4-(2,4-Dichloro-phenyl)-6-(4-methyl-2H-pyrazol-3-yl)-thieno[2,3-d]pyrimidin-2-ylamine]
> 5.00	Nc1nc(-c2ccc(Cl)cc2Cl)c2cc(-c3ccc[nH]3)sc2n1 [Example 21, 4-(2,4-Dichloro-phenyl)-6-(1H-pyrrol-2-yl)-thieno[2,3-d]pyrimidin-2-ylamine]

pIC50	SMILES
> 5.00	CC(=O)Nc1nc(C)c(-c2cc3c(-c4ccc(Cl)cc4Cl)nc(N)nc3s2)[nH]1 [Example 22, N-{5-[2-Amino-4-(2,4-dichloro-phenyl)-thieno[2,3-d]pyrimidin-6-yl]-4-methyl-1H-imidazol-2-yl}-acetamide]
> 5.00	Nc1nc(-c2ccc(Cl)cc2Cl)c2cc(-c3cnc[nH]3)sc2n1 [Example 24, 4-(2,4-Dichloro-phenyl)-6-(3H-imidazol-4-yl)-thieno[2,3-d]pyrimidin-2-ylamine]
> 5.00	NCc1cc2c(-c3ccc(Cl)cc3Cl)nc(N)nc2s1 [Example 25, 6-Aminomethyl-4-(2,4-dichloro-phenyl)-thieno[2,3-d]pyrimidin-2-ylamine]
> 5.00	CC(=O)NCc1cc2c(-c3ccc(Cl)cc3Cl)nc(N)nc2s1 [Example 26, N-[2-Amino-4-(2,4-dichloro-phenyl)-thieno[2,3-d]pyrimidin-6-ylmethyl]-acetamide]
> 5.00	Cc1ccc(-c2nc(N)nc3sccc23)c(C)c1 [Example 27, 4-(2,4-Dimethyl-phenyl)-thieno[2,3-d]pyrimidine-2-ylamine]
> 5.00	N#Cc1cc2c(-c3cc(OCc4ccccc4)c(Cl)cc3Cl)nc(N)nc2s1 [Example 28, 2-amino-4-(5-benzyloxy-2,4-dichloro-phenyl)-thieno[2,3-d]pyrimidine-6-carbonitrile]
> 5.00	CCN(CC)CCOc1cc(-c2nc(N)nc3sc(C#N)cc23)c(Cl)cc1Cl [Example 29, 2-Amino-4-[2,4-dichloro-5-(diethylamino-ethoxy)-phenyl]-thieno[2,3-d]pyrimidine-6-carbonitrile]
> 5.00	CCN(CC)CCOc1cc(-c2nc(N)nc3sc(/C(N)=N/O)cc23)c(Cl)cc1Cl [Example 30, 2-Amino-4-[2,4-dichloro-5-(2-diethylamino-ethoxy)-phenyl]-N-hydroxy-thieno[2,3-d]pyrimidine-6-carboxamidine]
> 5.00	CCN(CC)CCOc1cc(-c2nc(N)nc3sc(C4=NCCN4)cc23)c(Cl)cc1Cl [Example 31, 4-[2,4-dichloro-5-(2-diethylamino-ethoxy)-phenyl]-6-(4,5-dihydro-1H-imidazol-2-yl)-thieno[2,3-d]pyrimidin-2-ylamine]
> 5.00	CCN(CC)CCOc1cc(-c2nc(N)nc3sc(CO)cc23)c(Cl)cc1Cl [Example 32, {2-amino-4-[2,4-dichloro-5-(2-diethylamino-ethoxy)-phenyl]-thieno[2,3-d]pyrimidin-6-yl}-methanol]
> 5.00	CCN(CC)CCOc1cc(-c2nc(N)nc3sc(C=O)cc23)c(Cl)cc1Cl [Example 33, 2-amino-4-[2,4-dicholoro-5-(2-diethylamino-ethoxy)-phenyl]thieno[2,3-d]pyrimidine-6-carbaldehyde]
> 5.00	CCN(CC)CCOc1cc(-c2nc(N)nc3sc(/C=C/C(C)=O)cc23)c(Cl)cc1Cl [Example 34, 4-{2-Amino-4-[2,4-dicholoro-5-(2-diethylamino-ethoxy)-phenyl]thieno[2,3-d]pyrimidine-6-yl}-but-3-en-2-one]
> 5.00	CCN(CC)CCOc1cc(-c2nc(N)nc3sc(-c4cc(C)n[nH]4)cc23)c(Cl)cc1Cl [Example 35, 4-[2,4-dicholoro-5-(2-diethylamino-ethoxy)-phenyl]-6-(5-methyl-2H-pyrazol-3-yl)-thieno[2,3-d]pyrimidine-2-ylamine]
> 5.00	CCN(CC)CCOc1cc(-c2nc(N)nc3sc(C(=O)O)cc23)c(Cl)cc1Cl [Example 36, 2-Amino-4-[2,4-dichloro-5-(2-diethylamino-ethoxy)-phenyl]-thieno[2,3-d]pyrimidine-6-carboxylic acid]
> 5.00	Nc1nc(-c2cc(OCc3ccccc3)c(Cl)cc2Cl)c2cc(C(=O)O)sc2n1 [Example 37, 2-Amino-4-[5-benzyloxy-2,4-dichloro-phenyl]-thieno[2,3-d]pyrimidine-6-carboxylic acid]
